In patent US5859030A, “Substituted arylalkylthioalkylthiopyridines for use in the control of helicobacter bacteria” (BYK Gulden Lomberg Chemische Fabrik GmbH, priority 1994, dated 1999):
Converted amounts (≈) assume the structure as drawn. Where a name gives a salt, the structure may show the parent alone.

Test system: Helicobacter pylori
Assay: Activity against Helicobacter pylori (agar growth inhibition, methodology of Iwahi et al.)
Type: cell-based
Settings: 96 h, Columbia agar (Oxoid), growth period of 4 days, read-out: approx. MIC50
Source text: The compounds of the formula I were investigated regarding their activity against Helicobacter pylori following the methodology described by Tomoyuki Iwahi et al. (Antimicrobial Agents and Chemotherapy, 1991, 490-496) using Columbia agar (Oxoid) and with a growth period of 4 days. The approx. MIC 50 values listed in the following Table A resulted here for the compounds investigated (the numbers of the compounds given agree with the example numbers in the description).

Row | SMILES | MIC50 [µg/mL]
1 | Cc1c(SCCCCOc2ccccc2)ccnc1CSc1nc2ccccc2[nH]1 [Compound 2] | ~0.1 (≈ 0.23 µM)
2 | Cc1c(SCCCSc2nc3ccccc3s2)ccnc1CSc1nc2ccccc2[nH]1 [Compound 10, 2-{[[4-[(5-Benzothiazol-2-yl)-1,5-dithiapent-1-yl]-3-methyl-2-pyridinyl]methyl]thio}-1 H-benzimidazole] | ~0.1 (≈ 0.202 µM)
3 | Cc1c(SCCCSc2nc3ccccc3o2)ccnc1CSc1nc2ccccc2[nH]1 [Compound 11, 2-{[[4-[(5-Benzoxazol-2-yl)-1,5-dithiapent-1-yl]-3-methyl-2-pyridinyl]methyl]thio}1 H-benzimidazole] | ~0.1 (≈ 0.209 µM)
4 | Cc1ccc(CSCCSc2ccnc(CSc3nc4ccccc4[nH]3)c2C)cc1 [Compound 3, 2-{[[3-Methyl-4-[5-(4-methylphenyl)-1,4-dithia-pent-1-yl]-2-pvridinyl]methyl]thio}-1 H-benzimidazole] | ~0.05 (≈ 0.111 µM)
5 | Cc1scnc1CCSCCCSc1ccnc(CSc2nc3ccccc3[nH]2)c1C.Cl.Cl.Cl [Compound 7, 2-{[[3-Methyl-4-[7-(5-methylthiazol-4-yl)-1,5 dithiahept-1-yl]-2-pyridinyl]methyl]thio}-1 H-benzimidazole trihydrochloride] | ~0.05
6 | Cc1c(SCCCSc2ccncc2)ccnc1CSc1nc2cccnc2[nH]1 [Compound 14] | ~0.1 (≈ 0.227 µM)
7 | Cc1c(SCCCSC(=S)N(C)C)ccnc1CSc1nc2ccccc2[nH]1 [Compound 4, 2-{[[4-[3-Dimethvldithiocarbamoylpropylthio]-3-methyl-2-pyridinyl]methyl]thio}1 H-benzimidazole] | ~0.05 (≈ 0.111 µM)

Continued by falling MIC50, values first:

Row | MIC50 [µg/mL] | SMILES
8 | ~0.05 (≈ 0.113 µM) | Cc1c(SCCCSCc2ccco2)ccnc1CSc1nc2ccccc2[nH]1 [Compound 5, 2-{[[4-[(6-Furan-2-yl)-1,5-dithiahex-1-yl]-3-methyl-2-pyridinyl]methyl]thio}-1 H-benzimidazole]
9 | ~0.05 | Cc1c(SCCCSCc2ccc(CN(C)C)o2)ccnc1CSc1nc2ccccc2[nH]1 [Compound 6, trihydrochloride]
10 | ~0.05 (≈ 0.123 µM) | Cc1c(SCCOc2ccccc2)ccnc1CSc1nc2ccccc2[nH]1 [Compound 1]
